{"source": "patent US9211310B2", "about": "“Use of a Chinese medicine composition in preparing medicaments for treating secondary prevention of myocardial infarction” (TASLY PHARMACEUTICAL GROUP CO., LTD, priority 2010, dated 2015)", "system": "patients after acute myocardial infarction", "assay": "Life quality, Seattle Angina Questionnaire (SAQ), same clinical trial", "format": "in vivo, human", "conditions": "FAS", "description": "3508 patients who were in accordance with the diagnostic standards of AMI for 28 days to 2 years and differentiated as Qi deficiency and blood stagnation syndrome by TCM were studied. 0.5 g Chinese medicine composition prepared by the method of EXAMPLE 1 (Coded as QSYQ) was administrated half an hour after meal, 3 times per day.\nThere were 19 questions in the Seattle angina questionnaire (SAQ), including 5 parts: physical limitation (PL), anginal stability (AS), anginal frequency (AF), treatment satisfaction (TS) and disease perception (DP). After being given necessary explanation by doctors, the questions were answered independently by patients.\nThey included the overall survival time, angina pectoris score, TCM symptom score and life quality score, where angina pectoris score, TCM symptom score and life quality score were evaluated at randomization, in 1st, 3rd, 6th, 9th, 12th month after treatment and 18th month after follow-up.\nAll evaluation results of SAQ were described during the period of observation, and Wilcoxon rank sum test was used for inter-group comparison.\nThe evaluation results in the SAQ were depicted in different observations, and inter-group comparison was tested by Wilcoxon Rank-sum test."}
{"smiles": "CC(=O)Oc1ccccc1C(=O)O", "note": "[Control group, aspirine]", "values": [{"measurement": "SAQ Question 1-8: Mildly limited, patients (%)", "setting": "6 months after treatment", "value": "(25.30%)"}, {"measurement": "SAQ Question 1-8: Moderately limited, patients (%)", "setting": "6 months after treatment", "value": "(16.42%)"}, {"measurement": "SAQ Question 1-8: Not limited, patients (%)", "setting": "6 months after treatment", "value": "(10.62%)"}, {"measurement": "SAQ Question 1-8: Other reasons, patients (%)", "setting": "6 months after treatment", "value": "(3.77%)"}, {"measurement": "SAQ Question 1-8: Severely limited, patients (%)", "setting": "6 months after treatment", "value": "(19.38%)"}, {"measurement": "SAQ Question 1-8: Slightly limited, patients (%)", "setting": "6 months after treatment", "value": "(24.49%)"}, {"measurement": "8th question: Mostly satisfied, patients (%)", "setting": "6 months after treatment, second line of the scale", "value": "(2.24%)"}, {"measurement": "8th question: Dissatisfied, patients (%)", "setting": "9 months after treatment", "value": "(0.34%)"}, {"measurement": "8th question: Highly satisfied, patients (%)", "setting": "9 months after treatment", "value": "(22.36%)"}, {"measurement": "8th question: Mostly dissatisfied, patients (%)", "setting": "9 months after treatment", "value": "(1.89%)"}, {"measurement": "8th question: Mostly satisfied, patients (%)", "setting": "9 months after treatment", "value": "(58.31%)"}, {"measurement": "8th question: Partly satisfied, patients (%)", "setting": "9 months after treatment", "value": "(17.09%)"}, {"measurement": "9th question: Few, patients (%)", "setting": "9 months after treatment", "value": "(37.79%)"}, {"measurement": "9th question: Mild, patients (%)", "setting": "9 months after treatment", "value": "(33.08%)"}, {"measurement": "9th question: Moderate, patients (%)", "setting": "9 months after treatment", "value": "(8.77%)"}, {"measurement": "9th question: Severe, patients (%)", "setting": "9 months after treatment", "value": "(0.97%)"}, {"measurement": "9th question: Uneffective, patients (%)", "setting": "9 months after treatment", "value": "(19.38%)"}, {"measurement": "10th question: Dissatisfied, patients (%)", "setting": "9 months after treatment", "value": "(19.55%)"}, {"measurement": "10th question: Highly satisfied, patients (%)", "setting": "9 months after treatment", "value": "(5.73%)"}, {"measurement": "10th question: Mostly dissatisfied, patients (%)", "setting": "9 months after treatment", "value": "(20.47%)"}, {"measurement": "10th question: Mostly satisfied, patients (%)", "setting": "9 months after treatment", "value": "(28.84%)"}, {"measurement": "10th question: Partly satisfied, patients (%)", "setting": "9 months after treatment", "value": "(25.40%)"}, {"measurement": "11th question: Continuously worried, patients (%)", "setting": "9 months after treatment", "value": "(3.44%)"}, {"measurement": "11th question: No worried, patients (%)", "setting": "9 months after treatment", "value": "(6.02%)"}, {"measurement": "11th question: Occasionally worried, patients (%)", "setting": "9 months after treatment", "value": "(41.80%)"}, {"measurement": "11th question: Often worried, patients (%)", "setting": "9 months after treatment", "value": "(12.33%)"}, {"measurement": "11th question: Seldom worried, patients (%)", "setting": "9 months after treatment", "value": "(36.41%)"}, {"measurement": "SAQ 4th question, 1-2 times per week: % of patients", "setting": "9 months after treatment", "value": "(15.60%)"}, {"measurement": "SAQ 4th question, 1-2 times per week: number of patients", "setting": "9 months after treatment", "value": 272}, {"measurement": "SAQ 4th question, 1-3 times per week: % of patients", "setting": "9 months after treatment", "value": "(4.30%)"}, {"measurement": "SAQ 4th question, 1-3 times per week: number of patients", "setting": "9 months after treatment", "value": 75}, {"measurement": "SAQ 4th question, <1 time per week: % of patients", "setting": "9 months after treatment", "value": "(15.14%)"}, {"measurement": "SAQ 4th question, <1 time per week: number of patients", "setting": "9 months after treatment", "value": 264}, {"measurement": "SAQ 4th question, Not used: % of patients", "setting": "9 months after treatment", "value": "(59.69%)"}, {"measurement": "SAQ 4th question, Not used: number of patients", "setting": "9 months after treatment", "value": 1041}, {"measurement": "SAQ 4th question, ≧3 times per week: % of patients", "setting": "9 months after treatment", "value": "(5.16%)"}, {"measurement": "SAQ 4th question, ≧3 times per week: number of patients", "setting": "9 months after treatment", "value": 90}, {"measurement": "SAQ 4th question, ≧4 times per day: % of patients", "setting": "9 months after treatment", "value": "(0.11%)"}, {"measurement": "SAQ 4th question, ≧4 times per day: number of patients", "setting": "9 months after treatment", "value": 2}, {"measurement": "SAQ 5th question, 1-2 times per week: % of patients", "setting": "9 months after treatment", "value": "(28.67%)"}, {"measurement": "SAQ 5th question, 1-2 times per week: number of patients", "setting": "9 months after treatment", "value": 500}, {"measurement": "SAQ 5th question, 1-3 times per day: % of patients", "setting": "9 months after treatment", "value": "(7.97%)"}, {"measurement": "SAQ 5th question, 1-3 times per day: number of patients", "setting": "9 months after treatment", "value": 139}, {"measurement": "SAQ 5th question, <1 time per week: % of patients", "setting": "9 months after treatment", "value": "(28.56%)"}, {"measurement": "SAQ 5th question, <1 time per week: number of patients", "setting": "9 months after treatment", "value": 498}, {"measurement": "SAQ 5th question, No onset: % of patients", "setting": "9 months after treatment", "value": "(4.47%)"}, {"measurement": "SAQ 5th question, No onset: number of patients", "setting": "9 months after treatment", "value": 78}, {"measurement": "SAQ 5th question, ≧3 times per week: % of patients", "setting": "9 months after treatment", "value": "(29.42%)"}, {"measurement": "SAQ 5th question, ≧3 times per week: number of patients", "setting": "9 months after treatment", "value": 513}, {"measurement": "SAQ 5th question, ≧4 times per day: % of patients", "setting": "9 months after treatment", "value": "(0.92%)"}, {"measurement": "SAQ 5th question, ≧4 times per day: number of patients", "setting": "9 months after treatment", "value": 16}, {"measurement": "SAQ 6th question, Dissatisfied: % of patients", "setting": "9 months after treatment", "value": "(0.23%)"}, {"measurement": "SAQ 6th question, Dissatisfied: number of patients", "setting": "9 months after treatment", "value": 4}, {"measurement": "SAQ 6th question, Highly satisfied: % of patients", "setting": "9 months after treatment", "value": "(23.62%)"}, {"measurement": "SAQ 6th question, Highly satisfied: number of patients", "setting": "9 months after treatment", "value": 412}, {"measurement": "SAQ 6th question, Mostly dissatisfied: % of patients", "setting": "9 months after treatment", "value": "(1.95%)"}, {"measurement": "SAQ 6th question, Mostly dissatisfied: number of patients", "setting": "9 months after treatment", "value": 34}, {"measurement": "SAQ 6th question, Mostly satisfied: % of patients", "setting": "9 months after treatment", "value": "(58.77%)"}, {"measurement": "SAQ 6th question, Mostly satisfied: number of patients", "setting": "9 months after treatment", "value": 1025}, {"measurement": "SAQ 6th question, Partly satisfied: % of patients", "setting": "9 months after treatment", "value": "(15.42%)"}, {"measurement": "SAQ 6th question, Partly satisfied: number of patients", "setting": "9 months after treatment", "value": 269}, {"measurement": "SAQ 7th question, Dissatisfied: % of patients", "setting": "9 months after treatment", "value": "(0.11%)"}, {"measurement": "SAQ 7th question, Dissatisfied: number of patients", "setting": "9 months after treatment", "value": 2}, {"measurement": "SAQ 7th question, Highly satisfied: % of patients", "setting": "9 months after treatment", "value": "(27.21%)"}, {"measurement": "SAQ 7th question, Highly satisfied: number of patients", "setting": "9 months after treatment", "value": 474}, {"measurement": "SAQ 7th question, Most dissatisfied: % of patients", "setting": "9 months after treatment", "value": "(1.09%)"}, {"measurement": "SAQ 7th question, Most dissatisfied: number of patients", "setting": "9 months after treatment", "value": 19}, {"measurement": "SAQ 7th question, Mostly satisfied: % of patients", "setting": "9 months after treatment", "value": "(59.53%)"}, {"measurement": "SAQ 7th question, Mostly satisfied: number of patients", "setting": "9 months after treatment", "value": 1037}, {"measurement": "SAQ 7th question, Partly satisfied: % of patients", "setting": "9 months after treatment", "value": "(12.06%)"}, {"measurement": "SAQ 7th question, Partly satisfied: number of patients", "setting": "9 months after treatment", "value": 210}, {"measurement": "SAQ Question 1-1 Mildly limited, number of patients", "setting": "9 months after treatment", "value": 25}, {"measurement": "SAQ Question 1-1 Mildly limited, percent of patients", "setting": "9 months after treatment", "value": "(1.43%)"}, {"measurement": "SAQ Question 1-1 Moderately limited, number of patients", "setting": "9 months after treatment", "value": 5}, {"measurement": "SAQ Question 1-1 Moderately limited, percent of patients", "setting": "9 months after treatment", "value": "(0.29%)"}, {"measurement": "SAQ Question 1-1 Not limited, number of patients", "setting": "9 months after treatment", "value": 1643}, {"measurement": "SAQ Question 1-1 Not limited, percent of patients", "setting": "9 months after treatment", "value": "(94.21%)"}, {"measurement": "SAQ Question 1-1 Other reasons, number of patients", "setting": "9 months after treatment", "value": 3}]}
